The results in this text go back to patent US7683097B2, “Topoisomerase inhibitors” (Propharmacon Inc., priority 2004, dated 2010).

Where only a bound is given, the exact number is not on record here.

Common to all, as to type: cell-based
Experiment [1] relates to MCF-7. The experiment is described as follows: Cell proliferation assay, MCF-7. Conditions: Homo sapiens, MCF7; MCF-7 cell line, Table II; read-out: Activity (IC50, cell proliferation). How it is done:
The MCF-7 cell line, the MDR cell line, and the MCF-7/ADR cell line were used. Alamar Blue™ was used to quantitate cell viability.
The compounds listed in Table II were prepared using the procedures outlined in the above Examples.

Experiment [2] concerns MCF-7. The experiment is described as follows: Cell proliferation assay (panel), Breast Cancer MCF-7. Conditions: Homo sapiens, MCF7; read-out: GI50 or IC50, Breast Cancer MCF-7. How it is done:
(§1) The compounds listed in Table IV were prepared using the procedures outlined in the above Examples.

The subject of a further experiment is NCI-H460. As to the kind of experiment: Cell proliferation assay, NSC Lung Cancer NCI-H460. Conditions: Homo sapiens, read-out: GI50 or IC50, NSC Lung Cancer NCI-H460. How it is done: (§2) The compounds listed in Table III were prepared using the procedures outlined in the above Examples.
A further experiment relates to OVCAR-3. The experiment is described as follows: Cell proliferation assay, Ovarian Cancer OVCAR-3. Conditions: Homo sapiens, read-out: GI50 or IC50, Ovarian Cancer OVCAR-3. How it is done: as §1
For a further experiment, the system named is HCT-15. The experiment is described as follows: Cell proliferation assay, Colon Cancer HCT-15. Conditions: Homo sapiens, read-out: GI50 or IC50, Colon Cancer HCT-15. The procedure: as §2
A further experiment deals with SK-MEL-2. The experiment is described as follows: Cell proliferation assay, Melanoma SK-MEL-2. Conditions: Homo sapiens, read-out: GI50 or IC50, Melanoma SK-MEL-2. How it is done: as §1
Another experiment deals with SF-268. As to the kind of experiment: Cell proliferation assay, CNS Cancer SF-268. Conditions: Homo sapiens, read-out: GI50 or IC50, CNS Cancer SF-268. The procedure:
as §2

For another experiment, the system named is UO-31. As to the kind of experiment: Cell proliferation assay, Renal Cancer UO-31. Conditions: Homo sapiens, read-out: GI50 or IC50, Renal Cancer UO-31. The procedure:
as §1

The next experiment relates to PC-3. The experiment is described as follows: Cell proliferation assay, Prostate Cancer PC-3. Conditions: Homo sapiens, read-out: GI50 or IC50, Prostate Cancer PC-3. The procedure:
as §1

`O=C(Nc1cccnc1Cl)c1ccc(Cl)c(-c2ccc(-c3ccccc3)cc2)c1`: in the experiment on MCF-7 [1], the IC50 was above 10000 nM.
In the case of `CCN(CC)CCNC(=O)c1ccc(Cl)c(-c2ccc(-c3ccccc3)cc2)c1`, the IC50 in the experiment with MCF-7 [1] is below 1000 nM.
Consider `COc1ccc(NC(=O)c2ccc(Cl)c(-c3cccc(-c4ccccc4)c3)c2)cn1` [Compound 68, 6-Chloro-[1,1′;3′,1″]terphenyl-3-carboxylic acid (6-methoxy-pyridin-3-yl)-amide], for which the IC50 in the experiment on MCF-7 [2] and with NCI-H460 was at most 1000 nM each time.
For `O=C(Nc1ccc(Cl)nc1)c1ccc(Cl)c(-c2ccc(-c3ccccc3)cc2)c1` [Compound 13, 6-Chloro-[1,1′;4′,1″]terphenyl-3-carboxylic acid (6-chloro-pyridin-3-yl)-amide], the IC50 in the experiment with OVCAR-3 was at most 1000 nM; in the experiment on MCF-7 [2], at most 1000 nM; in the experiment on NCI-H460 it was at most 1000 nM; in the experiment with HCT-15, at most 1000 nM; with SK-MEL-2, 1000 to 25000 nM; in the experiment with SF-268, 1000 to 25000 nM. Also, the IC50 is 1000 to 25000 nM in the experiment on UO-31 and at most 1000 nM in the experiment with PC-3.
In the case of `COc1ccc(NC(=O)c2ccc(Cl)c(-c3cccc(O)c3)c2)cn1`, in the experiment on MCF-7 [1], the IC50 was below 1000 nM.
As for `O=C(NC(CCc1ccccc1)C(=O)O)c1ccc(Cl)c(-c2cccc(-c3ccccc3)c2)c1` (centres unmarked) [Compound 223, 2-[(6-Chloro-[1,1′;3′,1″]terphenyl-3-carbonyl)-amino]-4-phenyl-butyric acid], the IC50 in the experiment on MCF-7 [2] and in the experiment with SF-268 was above 25000 nM in each case.
In the case of `O=C(Nc1nnc(C(F)(F)F)s1)c1ccc(Cl)c(-c2ccc(-c3ccccc3)cc2)c1`, in the experiment with MCF-7 [1], the IC50 lay within 1000 to 10000 nM.
`COc1ncc(NC(=O)c2ccc(Cl)c(-c3ccc(-c4ccccc4)cc3)c2)cn1`: in the experiment with MCF-7 [1], the IC50 is below 1000 nM.
`COc1ccc(NC(=O)c2ccc(Cl)c(-c3ccc(-c4cccc(S(C)(=O)=O)c4)cc3)c2)cn1`: in the experiment on MCF-7 [1], the IC50 was below 1000 nM.
For the molecule `CS(=O)(=O)c1ccc(-c2cc(C(=O)NC3=NCCS3)ccc2Cl)cc1`, the IC50 in the experiment with MCF-7 [1] was in the range of 1000 to 10000 nM.
Turning to `O=C(NCCc1c[nH]cn1)C1Cc2ccccc2CN1C(=O)c1ccc(Cl)c(-c2ccc(-c3ccccc3)cc2)c1` (centres unmarked), the IC50 with MCF-7 [1] was above 10000 nM.
Regarding `COc1ccc(NC(=O)c2ccc(Cl)c(-c3cccc(C(N)=O)c3)c2)cn1`, the IC50 in the experiment with MCF-7 [1] was below 1000 nM.
`O=C(NCCN1CCCC1)c1cccc(-c2ccc(-c3ccccc3)cc2)c1`: the IC50 with MCF-7 [1] is 1000 to 10000 nM.
Consider `CCN(C(=O)c1ccc(Cl)c(-c2ccc(-c3ccccc3)cc2)c1)c1ccc2c(c1)OCO2`, for which, in the experiment with MCF-7 [1], the IC50 is above 10000 nM.
With `Cc1ccc(NC(=O)c2ccc(Cl)c(-c3ccc(-c4ccccc4)cc3)c2)cc1` [Compound 20, 6-Chloro-[1,1′;4′,1″]terphenyl-3-carboxylic acid p-tolylamide], the IC50 in the experiment on OVCAR-3 was 1000 to 25000 nM; in the experiment on MCF-7 [2], at most 1000 nM; in the experiment on NCI-H460, 1000 to 25000 nM; in the experiment on HCT-15, above 25000 nM; in the experiment with SK-MEL-2, above 25000 nM; with SF-268 it was 1000 to 25000 nM. The IC50 in the experiment on UO-31 and in the experiment on PC-3 was 1000 to 25000 nM each time.
As for `O=C(Nc1ccc(F)nc1)c1ccc(Cl)c(-c2ccc(-c3ccccc3)cc2)c1` [Compound 338, 6-Chloro-[1,1′;4′,1″]terphenyl-3-carboxylic acid (6-fluoro-pyridin-3-yl)-amide], the IC50 was at most 1000 nM with OVCAR-3; at most 1000 nM with MCF-7 [2]; at most 1000 nM with NCI-H460; at most 1000 nM with HCT-15; 1000 to 25000 nM with SK-MEL-2; at most 1000 nM in the experiment on SF-268. The IC50 is 1000 to 25000 nM with UO-31 and at most 1000 nM in the experiment with PC-3.
On to `CC(C)(C)OC(=O)NOC(=O)c1ccc(Cl)c(-c2ccc(-c3ccccc3)cc2)c1`, for which the IC50 with MCF-7 [1] is above 10000 nM.
Turning to `O=C(NC(CC1CCCCC1)C(=O)O)c1ccc(Cl)c(-c2cccc(-c3ccccc3)c2)c1` (centres unmarked) [Compound 236, 2-[(6-Chloro-[1,1′;3′,1″]terphenyl-3-carbonyl)-amino]-3-cyclohexyl-propionic acid], the IC50 in the experiment on MCF-7 [2] and with SF-268 was above 25000 nM throughout.
On to `C=C[S+]([O-])c1ccc(NC(=O)c2ccc(Cl)c(-c3ccc(-c4ccccc4)cc3)c2)cn1` (centres unmarked), for which the IC50 in the experiment on MCF-7 [1] lay in the range of 1000 to 10000 nM.
Turning to `COc1ccc(NC(=O)c2ccc(Cl)c(-c3ccc(-c4cccc(O)c4)cc3)c2)cn1`, the IC50 with MCF-7 [1] is below 1000 nM.
